Reference: ChEMBL document CHEMBL1201862, “PubChem BioAssay data set” (2004)
The source made the active and inactive calls. Cut-off read from the data, not from the text of the source, for most assays here: actives have a measured EC50 and inactives only a lower limit.

Columns and labels:
H9c2 = assay: cells; format: functional, cell-based; conditions: Rattus norvegicus, H9c2, Myocardium;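 note: confirmatory concentration-response retest of ultra-high-throughput screening hits for modulation of myocardial damage; cell death induced by hydrogen peroxide oxidative stress; compound pretreatment for 60 min then peroxide exposure for 2 h; potency is for protecting the cells against peroxide damage rather than for killing them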
H4 = assay: Luminescence Cell-Based Dose Response HTS to Identify Activators of 5'UTR Stem-Loop Driven Prion Protein mRNA Translation in H4 Neuroglioblastoma Cells. [Related pubchem assays: 1829 (Project Summary), 1814 (Primary HTS)]; format: functional; conditions: Homo sapiens
[1] = Luminescence Cell-Based Dose Response HTS to Identify Activators of Luciferase Translation or Activity in H4 […] Cells. [Related pubchem assays: 1829 (Project Summary), 1814 (Primary HTS)]; format: functional
[2] = Luminescence Cell-Based Dose Confirmation HTS to Identify Inhibitors of Platelet Dense Granule Release. [Related pubchem assays: 1663 (Primary HTS), 1678 (Summary of Project)]; format: functional
[3] = molecular target: Luciferin 4-monooxygenase (Photinus pyralis, UniProt P08659); assay: inhibition of purified Photinus pyralis luciferase – biochemical, luminescence, dose response (AID 1891)
[4] = molecular target: T1, Calpain-2 catalytic subunit (Sus scrofa, UniProt P43367); assay: m-calpain protease blockers, concentration series – biochemical, fluorogenic peptide substrate, dose response (AID 1420); format: functional
T1 sequence (P43367 whole entry): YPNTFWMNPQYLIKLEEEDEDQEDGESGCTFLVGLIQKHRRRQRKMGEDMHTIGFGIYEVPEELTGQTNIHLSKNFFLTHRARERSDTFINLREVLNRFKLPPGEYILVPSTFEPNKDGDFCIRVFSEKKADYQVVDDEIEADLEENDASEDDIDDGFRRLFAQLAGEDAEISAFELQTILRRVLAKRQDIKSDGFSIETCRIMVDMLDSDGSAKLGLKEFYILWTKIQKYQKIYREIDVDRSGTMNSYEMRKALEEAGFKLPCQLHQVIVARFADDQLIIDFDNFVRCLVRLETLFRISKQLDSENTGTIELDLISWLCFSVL

[5] = viability of uninfected HEp-2 cells – cell-based, HTS, cytotoxicity control for RSV inhibitor project, dose response (AID 2410); format: functional; conditions: human respiratory syncytial virus
[6] = Trypanosoma cruzi growth suppression in host cells – NIH3T3 host cells, beta-gal luminescence, confirmation (AID 2044); format: functional, cell-based;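 note: intracellular parasites grown in NIH/3T3 mouse fibroblasts as host cells; luminescent beta-galactosidase reporter signal from transgenic T. cruzi replicating inside host cells; inhibitors lower the luminescence signal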
[7] = NIH3T3 cell viability loss – ATP luminescence, mouse fibroblasts, counter-screen, dose response (AID 2010); format: functional, cell-based;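 note: cells exposed to compound for about 90 hours before reading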
[8] = Luminescence Cell-Based Dose Retest to Confirm Inhibitors of Cancer Stem Cells. [Related pubchem assays (depositor defined):AID2717, AID2721]; format: functional; conditions: Homo sapiens
[9] = Luminescence Cell-Based Dose Response HTS to Identify Inhibitors of 5'UTR Stem-Loop Driven Prion Protein mRNA Translation in H4 Neuroglioblastoma Cells. [Related pubchem assays: 1827 (Project Summary), 1813 (Primary HTS)]; format: functional
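Throughout, for AC50: cells exposed to compound for roughly 70 hours or longer before luminescence read.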

Chain of Luciferin 4-monooxygenase (P08659 whole entry): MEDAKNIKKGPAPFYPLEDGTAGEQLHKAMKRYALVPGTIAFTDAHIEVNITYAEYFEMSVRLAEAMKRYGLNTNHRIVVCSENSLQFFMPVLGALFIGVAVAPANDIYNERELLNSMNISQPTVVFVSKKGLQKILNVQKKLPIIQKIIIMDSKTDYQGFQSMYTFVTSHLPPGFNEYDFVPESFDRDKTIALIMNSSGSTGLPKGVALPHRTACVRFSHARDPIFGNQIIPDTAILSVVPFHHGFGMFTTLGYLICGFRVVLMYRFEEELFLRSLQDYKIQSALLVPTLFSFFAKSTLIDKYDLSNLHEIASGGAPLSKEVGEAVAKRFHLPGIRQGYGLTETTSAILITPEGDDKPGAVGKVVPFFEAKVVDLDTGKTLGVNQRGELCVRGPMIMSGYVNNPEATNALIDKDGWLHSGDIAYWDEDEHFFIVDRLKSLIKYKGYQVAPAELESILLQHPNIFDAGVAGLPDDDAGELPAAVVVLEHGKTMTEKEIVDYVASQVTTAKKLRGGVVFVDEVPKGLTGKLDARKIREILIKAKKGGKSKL

For `Cc1ccc(-c2nnc(NCc3nc4ccccc4[nH]3)c3ccccc23)cc1S(=O)(=O)N1CCOCC1`, the IC50 (H9c2) was > 79 µM (inactive).
For `O=C(/C=C/c1c(F)cccc1Cl)Nc1nc2ccccc2[nH]1`, the EC50 (H4) was 10.4 µM (active) and the EC50 [1] was 0.14 µM (inconclusive).
With `COc1ccc(CC(=O)NCC(=O)N/N=C/c2cc(Br)ccc2OC)cc1` the IC50 (H9c2) was 34.7 µM (inactive).
With `CCCCn1c(N)c(N(CC(C)C)C(=O)c2ccc(Br)s2)c(=O)[nH]c1=O` the EC50 [2] was > 112 µM (not active) and the EC50 [3] was > 112 µM (not active).
In the case of `Cc1cccc(OCCNc2ccc([N+](=O)[O-])cn2)c1`, the IC50 [4] is reported as > 50 µM (not active).
In the case of `CN(C)S(=O)(=O)n1cc(/C=C(\NC(=O)c2ccccc2F)C(=O)NCCN2CCOCC2)c2ccccc21`, the IC50 (H9c2) is reported as > 79 µM (inactive).
In the case of `COc1ccccc1N(Cc1ccccc1)S(=O)(=O)c1cccc(C(=O)Nc2ccc(C)cn2)c1`, the CC50 [5] is reported as 11 µM (active), the EC50 [6] is reported as 1.58 µM (active) and the EC50 [7] is reported as > 30 µM (not active).
With `COc1ccc(OC)c(NC(=O)c2sc3ncnc(N4CCN(c5ccccn5)CC4)c3c2C)c1` the IC50 (H9c2) was > 79 µM (inactive).
With `CCOc1ccc(CC(=O)Nc2c(C(N)=O)oc3ccc(Br)cc23)cc1OCC` the IC50 (H9c2) was > 79 µM (inactive).
With `Fc1ccc(-c2ccc(-c3nn4c(-c5ccco5)nnc4s3)o2)cc1` the IC50 (H9c2) was 36.1 µM (inactive).
For `Cc1cc2nnc(SC(C)C)n2c2ccccc12`, the CC50 [5] was > 50 µM (active).
With `O=C(CCN1Cc2ccccc2C1)c1ccc2c(c1)OCCO2` the AC50 [8] was 11.5 µM (active).
For `COc1cc(C(=O)N2CCN(c3ccc([N+](=O)[O-])cc3)CC2)ccc1OCc1c(C)noc1C`, the EC50 [2] was > 112 µM (not active) and the EC50 [3] was 40.2 µM (active).
With `COc1ccc(/C=C/C2=NC(=C\N(C)C)/C(=O)O2)cc1` the EC50 (H4) was 8.24 µM (active) and the EC50 [1] was 11.2 µM (active).
In the case of `O=C(c1cc(COc2c(F)cccc2F)on1)N1CCC(c2ccccc2Cl)C1` (stereo unspecified), the IC50 [4] is reported as 4.48 µM (not active).
With `Cc1ccc(C2(CCNCc3ccc(N(C)C)cc3)CCOC(C(C)C)C2)cc1` (stereo unspecified) the CC50 [5] was 12.6 µM (active).
In the case of `CCc1nnc(S)n1/N=C/c1c(C)nn(-c2ccccc2)c1Cl`, the EC50 [9] is reported as 19 µM (active).
For `COc1ccc(NC(=O)CC2C(=O)N(C)C(=S)N2CCc2ccccc2)cc1` (stereo unspecified), the CC50 [5] was 18 µM (active).
For `Cc1ccc(-c2nc3ccccc3[nH]2)s1`, the EC50 [2] was 7.89 µM (active) and the EC50 [3] was 0.951 µM (active).
In the case of `CCN(CC)c1nc(SCCOC(=O)Nc2ccccc2)nc(N(CC)CC)n1`, the EC50 [6] is reported as 1.73 µM (active), the AC50 [8] is reported as 2.79 µM (active) and the EC50 [7] is reported as > 60 µM (not active).
For `CCOC(=O)N1CCc2c(sc(NC(=O)CN3CCOCC3)c2C(=O)Nc2ccccc2)C1`, the IC50 (H9c2) was 22.8 µM (active).
For `S=C(NCC1CC1)N/N=C/c1ccccc1Cl`, the EC50 [2] was > 112 µM (not active) and the EC50 [3] was > 112 µM (not active).
For `CCc1ccc(NC(=O)Nc2ccsc2C(=O)OC)cc1`, the EC50 [2] was 2.06 µM (active) and the EC50 [3] was 0.701 µM (active).
With `COc1ccccc1C(=O)Nc1ccc(S(=O)(=O)N(C)c2ccccc2)cc1` the CC50 [5] was 29.4 µM (active).
With `O=C(COc1ccc(Br)cc1CO)Nc1ccccc1F` the CC50 [5] was 35.2 µM (active).
